Laboratory results taken from US9233978B2, “6-fused heteroaryldihydropyrimidines for the treatment and prophylaxis of hepatitis B virus infection” (Hoffmann-La Roche Inc., priority 2014, dated 2016).
In brackets after ≈: the same amount, converted by molar mass.

Columns and labels:
[1] = test system: HBV; assay: Anti-HBV activity in vitro, HepG2.2.15 cells, extracellular HBV DNA by qPCR; assay type: cell-based; settings: Hepatitis B virus, HepG2.2.15, 120 h, HepG2.2.15 cells; HBV replication inhibited by 50%, extracellular HBV DNA by qPCR; five days after compound treatment; read-out: EC50
Procedure, shortened: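 Extracellular HBV DNA in culture supernatant was measured by qPCR after nucleic acid extraction. The supernatant came from constitutively replicating HepG2.2.15 cells exposed for five days to half-log-diluted compounds, with DMSO at 0.5% final. Cells had been plated overnight at 37 °C beforehand.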

[2] = Human microsomal metabolic stability; assay type: in vitro ADME; settings: human microsomes 0.5 mg/mL, 1 μM test compound, NADPH, 37° C., pH 7.4, 0-30 minutes
Method: Human Microsomes (BD Gentest) were preincubated with test compound for 10 minutes at 37° C. in 100 mM phosphate buffer, pH 7.4. The reactions were initiated by adding NADPH or NADPH regenerating system to give a final incubation volume of 400 μL. For NADPH system, the final incubations contained 1 μM test compound, 0.5 mg/mL liver microsomal protein, 1 mM NADPH in 100 mM phosphate buffer, pH 7.4. For the NADPH regenerating system, the final incubations contained 1 μM test compound, 0.5 mg/mL liver microsomal protein, 3 mM glucose 6-phosphate, 1 mM NADP, 3 mM MgCl2 and 0.05 mg/mL glucose 6-phosphate dehydrogenase in 100 mM phosphate buffer, pH 7.4. After incubation times of 0, 3, 6, 9, 15 and 30 minutes at 37° C., 1 sample was obtained from each time point and 50 μL of each sample was removed and transferred to 150 μL of methanol solution which was maintained at 4° C. and contained 2 μM tolbutamide as internal standard. Following precipitation and centrifugation, the amount of compound remaining in the samples were determined by LC-MS/MS. Controls of no NADPH or no NADPH regenerating system at zero and 30 minutes were also prepared and analyzed.

[3] = Lysa solubility; assay type: physicochemical; settings: phosphate buffer, pH 6.5, aqueous buffer, thermodynamic from solid, 0.05 M phosphate buffer (pH 6.5)
Method: Samples were prepared in duplicate from 10 mM DMSO stock solutions. After evaporation of DMSO with a centrifugal vacuum evaporator, the residue was solved in 0.05 M phosphate buffer (pH 6.5), stirred for one hour and shook for two hours. After one night, the solution was filtered using a microtiter filter plate. Then the filtrate and its 1/10 dilution were analyzed by direct UV measurement or by HPLC-UV. […] The results were in μg/mL. In case the percentage of sample measured in solution after evaporation divided by the calculated maximum of sample amount was over 80%, the solubility was reported as higher than this value.

Structure (SMILES)	EC50 [1]	Human Microsomal Clearance [2]	solubility thermodynamic [3]
CCOC(=O)C1=C(CN2CCN3C(=O)N(CCOCC(=O)O)CC3C2)NC(c2nccs2)=N[C@H]1c1cccc(F)c1Cl (stereo partly drawn) [Example 67, 2-[2-[7-[[(4R)-4-(2-chloro-3-fluoro-phenyl)-5-ethoxycarbonyl-2-thiazol-2-yl-1,4-dihydropyrimidin-6-yl]methyl]-3-oxo-5,6,8,8a-tetrahydro-1H-imidazo[1,5-a]pyrazin-2-yl]ethoxy]acetic acid]	438 nM	4.7 mL/min/kg	> 794 µg/mL
COC(=O)C1=C(CN2CCN3C(=O)N([C@H]4C[C@H](C(=O)O)C4)C[C@@H]3C2)NC(c2nccs2)=N[C@H]1c1ccc(F)cc1Cl [Example 39, 3-[(2S,8aR)-7-[[(4R)-4-(2-chloro-4-fluoro-phenyl)-5-methoxycarbonyl-2-thiazol-2-yl-1,4-dihydropyrimidin-6-yl]methyl]-3-oxo-5,6,8,8a-tetrahydro-1H-imidazo[1,5-a]pyrazin-2-yl]cyclobutanecarboxylic acid]	30 nM	0.4 mL/min/kg	> 770 µg/mL
COC(=O)C1=C(CN2CCN3C(=O)N(C4CCC(C(=O)O)CC4)C[C@@H]3C2)NC(c2nccs2)=N[C@H]1c1ccc(F)cc1Cl (stereo partly drawn) [Example 72, 4-[(8aS)-7-[[(4R)-4-(2-chloro-4-fluoro-phenyl)-5-methoxycarbonyl-2-thiazol-2-yl-1,4-dihydropyrimidin-6-yl]methyl]-3-oxo-5,6,8,8a-tetrahydro-1H-imidazo[1,5-a]pyrazin-2-yl]cyclohexanecarboxylic acid]	9 nM	5.2 mL/min/kg	551 µg/mL (≈ 873 µM)
COC(=O)C1=C(CN2CCN3C(=O)N(CC(C)(C)C(=O)O)C[C@@H]3C2)NC(c2nccs2)=N[C@H]1c1ccccc1Cl [Example 74, 3-[(8aS)-7-[[(4R)-4-(2-chlorophenyl)-5-methoxycarbonyl-2-thiazol-2-yl-1,4-dihydropyrimidin-6-yl]methyl]-3-oxo-5,6,8,8a-tetrahydro-1H-imidazo[1,5-a]pyrazin-2-yl]-2,2-dimethyl-propanoic acid]	36 nM	1.0 mL/min/kg	> 716 µg/mL
COC(=O)C1=C(CN2CCN3C(=O)N(C(C)C)CC3(CC(=O)O)C2)NC(c2nccs2)=N[C@H]1c1ccc(F)cc1Cl (stereo partly drawn) [Example 31, 2-[7-[[(4R)-4-(2-chloro-4-fluoro-phenyl)-5-methoxycarbonyl-2-thiazol-2-yl-1,4-dihydropyrimidin-6-yl]methyl]-2-isopropyl-3-oxo-1,5,6,8-tetrahydroimidazo[1,5-a]pyrazin-8a-yl]acetic acid]	100 nM	0.3 mL/min/kg	> 775 µg/mL
